From ChEMBL document CHEMBL3596170, “Synthesis of 1H-1,2,3-triazole linked aryl(arylamidomethyl) - dihydrofurocoumarin hybrids and analysis of their cytotoxicity” (2015) come the findings set out here.

What all share (assay type): functional
The nature of test [1]: Cytotoxicity against human CEM13 cells assessed as cell death after 72 hrs by MTT assay.
The subject of another test is MT4. As to the kind of experiment: Cytotoxicity against human MT4 cells assessed as cell death after 72 hrs by MTT assay. (In general: Tetrazolium assays rely on reduction of a dye to a coloured formazan, in cell work by metabolically active cells.)
In a further test the test system is U-937. As to the kind of experiment: Cytotoxicity against human U937 cells assessed as cell death after 72 hrs by MTT assay.

As to `CC(C)C1(N=[N+]=[N-])Oc2cc3oc(=O)ccc3cc2C1=O` (configuration not stated), the figures for the CTD50 (in test [1]; with MT4; with U-937) were 49 µM, 50 µM and 53 µM, respectively.

Take `CC(C)C1(N=[N+]=[N-])Oc2c(cc3ccc(=O)oc3c2CN2CCN(C)CC2)C1=O` (configuration not stated): the CTD50 was 58 µM in test [1], 62 µM with MT4 and 45 µM with U-937.

With `CC(C)C1(n2cc(-c3ccccc3)nn2)Oc2cc3oc(=O)ccc3cc2C1=O` (configuration not stated), the CTD50 in test [1] was 51 µM; with MT4 it was 70 µM; in the test on U-937, 31 µM.

Regarding `COc1ccc(-c2cn(C3(C(C)C)Oc4cc5oc(=O)ccc5cc4C3=O)nn2)c(OC)c1OC` (configuration not stated), the CTD50 in test [1] was 32 µM; with MT4, 27 µM; in the test on U-937, 45 µM.

In the case of `COc1cc(-c2cn(C3(C(C)C)Oc4cc5oc(=O)ccc5cc4C3=O)nn2)ccc1OCc1ccccc1` (configuration not stated), the CTD50 is 25 µM in test [1], 28 µM in the test on MT4 and 28 µM in the test with U-937.

For `CC(C)C1(n2cc(-c3ccc4c(c3)OCCO4)nn2)Oc2cc3oc(=O)ccc3cc2C1=O` (configuration not stated), the CTD50 in test [1] was determined as 15 µM; in the test on MT4, 11 µM; in the test on U-937, 8 µM.

Turning to `CC(C)C1(n2cc(-c3cc([N+](=O)[O-])ccc3O)nn2)Oc2cc3oc(=O)ccc3cc2C1=O` (configuration not stated), the CTD50 amounted to 21 µM in test [1], 11 µM with MT4 and 20 µM in the test with U-937.

Take `CC(C)C1(n2cc(CNC(=O)c3cc(O)cc(O)c3)nn2)Oc2cc3oc(=O)ccc3cc2C1=O` (configuration not stated): the results for the CTD50 (in test [1]; in the test with MT4; with U-937) were 16 µM, 22 µM and 23 µM, respectively.

For `COc1cc(C(=O)NCc2cn(C3(C(C)C)Oc4cc5oc(=O)ccc5cc4C3=O)nn2)ccc1O` (configuration not stated), the values for the CTD50 (in test [1]; in the test with MT4; in the test with U-937) were 9 µM, 10 µM and 8 µM, respectively.

As for `COc1cc(OC)cc(C(=O)NCc2cn(C3(C(C)C)Oc4cc5oc(=O)ccc5cc4C3=O)nn2)c1` (configuration not stated), the CTD50 in test [1] amounted to 18 µM; with MT4 it was 19 µM; in the test with U-937, 45 µM.

As for `CC(C)C1(n2cc(CNC(=O)c3cc(O)c(O)c(O)c3)nn2)Oc2cc3oc(=O)ccc3cc2C1=O` (configuration not stated), the CTD50 came out at 11 µM in test [1], 12 µM in the test with MT4 and 20 µM with U-937.

For `CC(C)C1(n2cc(CNC(=O)c3ccc(N)cc3O)nn2)Oc2cc3oc(=O)ccc3cc2C1=O` (configuration not stated), the CTD50 was found to be 17 µM in test [1], 13 µM in the test with MT4 and 24 µM with U-937.

With `COc1ccc(/C=C/C(=O)NCc2cn(C3(C(C)C)Oc4cc5oc(=O)ccc5cc4C3=O)nn2)c(OC)c1` (configuration not stated), the figures for the CTD50 (in test [1]; in the test with MT4; in the test with U-937) were 30 µM, 22 µM and 25 µM, respectively.

As for `CC(C)C1(n2cc(-c3ccccc3)nn2)Oc2c(cc3ccc(=O)oc3c2CN2CCN(C)CC2)C1=O` (configuration not stated), the CTD50 was determined as 32 µM in test [1], 33 µM with MT4 and 25 µM in the test on U-937.

For the compound `CC(C)C1(n2cc(-c3ccc4c(c3)OCCO4)nn2)Oc2c(cc3ccc(=O)oc3c2CN2CCN(C)CC2)C1=O` (configuration not stated), the CTD50 in test [1] was 10 µM; with MT4, 13 µM; with U-937, 10 µM.

`CC(C)C1(n2cc(-c3cc([N+](=O)[O-])ccc3O)nn2)Oc2c(cc3ccc(=O)oc3c2CN2CCN(C)CC2)C1=O` (configuration not stated): the CTD50 was 11 µM in test [1], 11 µM with MT4 and 17 µM with U-937.

On to `COc1ccc(/C=C/C(=O)NCc2cn(C3(C(C)C)Oc4c(cc5ccc(=O)oc5c4CN4CCN(C)CC4)C3=O)nn2)c(OC)c1` (configuration not stated), for which the values for the CTD50 (in test [1]; in the test on MT4; in the test on U-937) were 16 µM, 13 µM and 16 µM, respectively.

On to `COc1cccc2c1C(=O)c1c(O)c3c(c(O)c1C2=O)C[C@@](O)(C(=O)CO)C[C@@H]3O[C@H]1C[C@H](N)[C@H](O)[C@H](C)O1` [DOXORUBICIN], for which the CTD50 in test [1] was found to be 7.4 µM; with MT4 it was 3.4 µM; with U-937, 0.2 µM.

`COc1c(C(C)C)oc2cc3oc(=O)ccc3cc12` [PEUCEDANIN]: the CTD50 turned out to be 81 µM in test [1], 67 µM with MT4 and 58 µM in the test with U-937.
